Read-outs that look alike come from different tables or passages of the source.
Experiments:
[1] = Antioxidizing action for salad oil (lipid peroxide, Yagi's method); details: 180° C. for 40 min.
Experimental: Salad oil: Product of Nisshin Seiyu Co., Ltd., Japan.
Test oils were prepared by using various kinds of saponin components which were added into the salad oil in the amounts of 1 mg/ml and 0.1 mg/ml. These test oils and a control oil containing no saponin component were heated at 180° C. for 40 minutes, while oxygen was being blown thereinto. After they were cooled, the quantities of the lipid peroxides formed in the oils were determined by the Yagi's method [K. Yagi, Biochemie.

Solubility = assay type: physicochemical
[2] = pH / acidity of aqueous solution; assay type: physicochemical
[3] = tested on: lipid peroxides in the heart; experiment: Inhibition of formation of lipid peroxides in the heart of Adreamycin-treated mice; assay type: in vivo, mice (COF male); details: for Lipid peroxide, heart / Rate of inhibition, heart: n = 5
Experimental: (§1) It is widely known that Adreamycin, which is an oncostatic, inhibits the synthesis of DNA by combining therewith, and the metabolism of lipids in the heart to cause deposition of lipid peroxides therein, leading to miocardosis.
(§2) (1) The tests were conducted with groups of five COF male mice, five week old, weighing 20 to 25 g each. 15 mg/kg of Adreamycin (product of Kyowa Hakko Kogyo, Japan) were intraperitoneally injected into each mouse (0.15 ml of the medicine per 10 g of mouse weight).
(§3) The administration of each of the medicines to be tested as shown in Table 1 below was started one day prior to the administration of Adreamycin, and continued intraperitoneally for five days at a rate of 0.10 ml per 10 g of mouse weight. All the medicines tested were suspended or emulsified (only vitamin E) in a 0.9% physiological solution of sodium chloride, or a 0.9% physiological solution of sodium chloride containing 1% of Tween 80 immediately before they were applied. All the medicines tested were administered at noon every day, and Adreamycin was given three hours after the administration of the medicines tested. The saponin component of this invention was given in the amount of 1,000 mg/kg, 500 mg/kg, 125 mg/kg, 50 mg/kg, 25 mg/kg and 12.5 mg/kg, vitamin E in the amount of 1,000 mg/kg and 250 mg/kg, and vitamin B2 in the amount of 1,000 mg/kg, while a 0.9% physiological solution of sodium chloride was given to the mice of the control group.
(§4) (2) On the sixth day, each mouse was killed by dislocation of the cervical vertebrae, and its heart and liver were picked out immediately. After their wet weights were measured, a 2% homogenate was prepared with a 0.9% physiological solution of sodium chloride by a Potter homogenizer made of Teflon while it was being cooled with ice.
(§5) 0.5 ml of a 3% aqueous solution of sodium lauryl sulfate was added into 0.2 ml of the aforementioned 2% homogenate, and they were mixed together by shaking for 30 seconds. Then, 1.5 ml of an acetic acid buffer solution having a pH value of 3.6, and 1.5 ml of a 0.8% solution of thiobarbituric acid were added thereinto, followed by addition of distilled water to make a total of 4.0 ml. After the resulting solution was shaked vigorously for 30 seconds, it was heated at 95° C. for an hour in an oil bath, and cooled with flowing water for five minutes. Then, 1.0 ml of 0.2N hydrochloric acid and 5.0 ml of a mixed solution of n-butanol and pyridine (15:1) were added into the solution, and after it was shaked violently, it was subjected to centrifugal separation at 3,000 rpm for 15 minutes, whereby the top n-butanol layer was separated, and its fluorescence spectrum was measured by a spectrophotofluorometer (Ex 515 nm and Em 553 nm). […] The quantity of lipid peroxides was obtained by applying the working curve to the values as actually measured.
(§6) The rate of inhibition of the formation of lipid peroxides was obtained in accordance with the following equation to compare the effects of the various medicines tested, and the quantities thereof employed, as shown in Table 1: [formula] wherein A: the concentration of lipid peroxides in the group of mice to which no Adreamycin had been given;
(§7) D: the concentration of lipid peroxides in the groups of mice to which both Adreamycin and the medicines to be tested had been administered.
(§8) Note: The rate of inhibition by each dosage was calculated by comparison with the values shown for the respective test numbers in the control group (i.e., applying the values of C shown for the control group).

[4] = tested on: lipid peroxides in the liver; experiment: Inhibition of formation of lipid peroxides in the liver of Adreamycin-treated mice; assay type: in vivo, mice (COF male); details: n = 5
Experimental: as §1, §2, §3, §4, §5, §6, §7, §8

[5] = tested on: formation of lipid peroxides; details: prior art statement, cited from earlier work
[6] = prior art statement; cited from earlier work
[7] = prior art statement; cited from earlier work; remark: listed apart in the source

Compound: CC1(C)C[C@H]2C3=CC[C@@H]4[C@@]5(C)CC[C@H](O[C@@H]6O[C@H](C(=O)O)[C@@H](O)[C@H](O)[C@H]6O[C@@H]6O[C@H](CO)[C@H](O)[C@H](O)[C@H]6O[C@@H]6O[C@H](CO)[C@@H](O)[C@H](O)[C@H]6O)[C@](C)(CO)[C@@H]5CC[C@@]4(C)[C@]3(C)CC[C@@]2(C)[C@H](O[C@@H]2OC[C@H](O)[C@H](O[C@@H]3O[C@H](CO)[C@@H](O)[C@H](O)[C@H]3O)[C@H]2O)[C@@H]1O [Soyasaponin A1, 3-O-[β-D-glucopyranosyl(1→2)-β-D-galactopyranosyl-(1→2)-β-D-glucuronopyranosyl]-22-O-[β-D-glucopyranosyl(1→3)-α-L-arabinopyranosyl]-soyasapogenol A]
- Quantity of lipid peroxide ([1]; 0.1 mg/ml): 22.5 nmol/mL
- Rate of inhibition of increase in lipid peroxide ([1]; 0.1 mg/ml): 74.8%
- Quantity of lipid peroxide ([1]; 1 mg/ml): 13.8 nmol/mL
- Rate of inhibition of increase in lipid peroxide ([1]; 1 mg/ml): 91.5%
- Solubility (Solubility): easily soluble in methanol, soluble in water, pyridine, dimethyl sulfoxide and ethanol, and insoluble in acetone, chloroform and ether
- pH value of aqueous solution ([2]; 10 mg in 1 ml of water): 6

Compound: Cc1cc2nc3c(=O)[nH]c(=O)nc-3n(C[C@H](O)[C@H](O)[C@H](O)CO)c2cc1C [Vitamin B2, riboflavin]
- Lipid peroxide, heart ([3]; 1000 mg/kg i.p., test No. I): 153.61 ± 11.12 nmol/g
- Rate of inhibition, heart ([3]; 1000 mg/kg i.p., test No. I): 40.81
- Lipid peroxide, liver ([4]; 1000 mg/kg i.p., test No. I): 124.84 ± 10.26 nmol/g
- Rate of inhibition, liver ([4]; 1000 mg/kg i.p., test No. I): 21.28
- Power of inhibiting the formation of lipid peroxides ([5]; compared with vitamin E): extremely lower power of inhibiting the formation of lipid peroxides than vitamin E

Compound: Cc1c(C)c2c(c(C)c1O)CCC(C)(CCCC(C)CCCC(C)CCCC(C)C)O2 (stereo not drawn) [Vitamin E, α-tocopherol]
- Lipid peroxide, heart ([3]; 250 mg/kg i.p., test No. II): 86.34 ± 12.61 nmol/g
- Rate of inhibition, heart ([3]; 250 mg/kg i.p., test No. II): 101.98
- Lipid peroxide, heart ([3]; 1000 mg/kg i.p., test No. I): 106.87 ± 36.40 nmol/g
- Rate of inhibition, heart ([3]; 1000 mg/kg i.p., test No. I): 82.61
- Lipid peroxide, liver ([4]; 250 mg/kg i.p., test No. II): 76.90 ± 8.15 nmol/g
- Rate of inhibition, liver ([4]; 250 mg/kg i.p., test No. II): 94.79
- Lipid peroxide, liver ([4]; 1000 mg/kg i.p., test No. I): 89.27 ± 26.33 nmol/g
- Rate of inhibition, liver ([4]; 1000 mg/kg i.p., test No. I): 75.95
- Solubility [6]: insoluble in water and soluble in oil
- Storage in the body and side effects [7]: stored in the body for a long period of time, and produces side effects
- Effectiveness for inhibiting the formation of lipid peroxides [5]: effective agent for inhibiting the formation of lipid peroxides

Compound: COc1cccc2c1C(=O)c1c(O)c3c(c(O)c1C2=O)C[C@@](O)(C(=O)CO)C[C@@H]3O[C@H]1C[C@H](N)[C@H](O)[C@H](C)O1 [Adreamycin]
- Effect of Adreamycin on lipid peroxides ([3]; 15 mg/kg i.p., heart and liver, mice): increases the lipid peroxides in the heart and liver

Compound: C[C@@H]1O[C@@H](O[C@H]2[C@H](O[C@H]3[C@H](O[C@H]4CC[C@@]5(C)[C@@H](CC[C@]6(C)[C@@H]5CC=C5[C@@H]7CC(C)(C)C[C@@H](O)[C@]7(C)CC[C@]56C)[C@@]4(C)CO)O[C@H](C(=O)O)[C@@H](O)[C@@H]3O)O[C@H](CO)[C@H](O)[C@@H]2O)[C@H](O)[C@H](O)[C@H]1O [Soyasaponin I, 3-O-[α-L-rhamnopyranosyl(1→2)-β-D-galactopyranosyl(1→2)-β-D-glucuronopyranosyl]-soyasapogenol B]
- Quantity of lipid peroxide ([1]; 0.1 mg/ml): 45.6 nmol/mL
- Rate of inhibition of increase in lipid peroxide ([1]; 0.1 mg/ml): 30.3%
- Quantity of lipid peroxide ([1]; 1 mg/ml): 10.6 nmol/mL
- Rate of inhibition of increase in lipid peroxide ([1]; 1 mg/ml): 97.7%

Compound: CC1(C)C[C@@H](O)[C@]2(C)CC[C@]3(C)C(=CC[C@@H]4[C@@]5(C)CC[C@H](O[C@@H]6O[C@H](C(=O)O)[C@@H](O)[C@H](O)[C@H]6O[C@@H]6O[C@H](CO)[C@H](O)[C@H](O)[C@H]6O)[C@](C)(CO)[C@@H]5CC[C@]43C)[C@@H]2C1 [Soyasaponin III, 3-O-[β-D-galactopyranosyl(1→2)-β-D-glucuronopyranosyl]-soyasapogenol B]
- Quantity of lipid peroxide ([1]; 0.1 mg/ml): 45.6 nmol/mL
- Rate of inhibition of increase in lipid peroxide ([1]; 0.1 mg/ml): 30.3%
- Quantity of lipid peroxide ([1]; 1 mg/ml): 8.8 nmol/mL
- Rate of inhibition of increase in lipid peroxide ([1]; 1 mg/ml): 101.2%

Compound: C[C@@H]1O[C@@H](O[C@H]2[C@H](O[C@H]3[C@H](O[C@H]4CC[C@@]5(C)[C@@H](CC[C@]6(C)[C@@H]5CC=C5[C@@H]7CC(C)(C)C[C@@H](O)[C@]7(C)CC[C@]56C)[C@@]4(C)CO)O[C@H](C(=O)O)[C@@H](O)[C@@H]3O)OC[C@H](O)[C@@H]2O)[C@H](O)[C@H](O)[C@H]1O [Soyasaponin II, 3-O-[α-L-rhamnopyranosyl(1→2)-α-L-arabinopyranosyl(1→2)-β-D-glucuronopyranosyl]-soyasapogenol B]
- Quantity of lipid peroxide ([1]; 0.1 mg/ml): 46.3 nmol/mL
- Rate of inhibition of increase in lipid peroxide ([1]; 0.1 mg/ml): 28.9%
- Quantity of lipid peroxide ([1]; 1 mg/ml): 80.6 nmol/mL
- Rate of inhibition of increase in lipid peroxide ([1]; 1 mg/ml): -37.2%

Compound: CC1(C)C[C@H]2C3=CC[C@@H]4[C@@]5(C)CC[C@H](O[C@@H]6O[C@H](C(=O)O)[C@@H](O)[C@H](O)[C@H]6O[C@@H]6O[C@H](CO)[C@H](O)[C@H](O)[C@H]6O)[C@](C)(CO)[C@@H]5CC[C@@]4(C)[C@]3(C)CC[C@@]2(C)[C@H](O[C@@H]2OC[C@H](O)[C@H](O[C@@H]3O[C@H](CO)[C@@H](O)[C@H](O)[C@H]3O)[C@H]2O)[C@@H]1O [Soyasaponin A2, 3-O-[β-D-galactopyranosyl-(1→2)-β-D-glucuronopyranosyl]-22-O-[β-D-glucopyranosyl (1→3)-α-L-arabinopyranosyl]-soyasapogenol A]
- Quantity of lipid peroxide ([1]; 0.1 mg/ml): 60.0 nmol/mL
- Rate of inhibition of increase in lipid peroxide ([1]; 0.1 mg/ml): 2.5%
- Quantity of lipid peroxide ([1]; 1 mg/ml): 38.8 nmol/mL
- Rate of inhibition of increase in lipid peroxide ([1]; 1 mg/ml): 43.4%
- Solubility (Solubility): easily soluble in methanol, soluble in water, pyridine, dimethyl sulfoxide and ethanol, and insoluble in acetone, chloroform and ether
- pH value of aqueous solution ([2]; 5 mg in 1 ml of water): 6
